The text below walks through data of patent publication US9889101B2, “Therapeutic treatment of cancer and dysplasia of the cervix or vagina using estrogen antagonists” (Wisconsin Alumni Research Foundation, priority 2009, dated 2018).

For one assay, the system named is ER. The conditions noted are these: undefined if not mentioned; cited from earlier work.
In assay [1] the test system is K14E6/K14E7 double transgenic mice. The assay is described as follows: Treatment of pre-existing cervical/vaginal cancer and dysplasia in estrogen-treated K14E6/K14E7 mice.
Protocol: Experimental mice were generated by crossing K14E7 hemizygote and K14E6 homozygote mice. Female progenies were genotyped by PCR and a slow-releasing 17β-estradiol (E2) tablet (0.05 mg/60 days) (Innovative Research of America) was inserted subcutaneously under the dorsal skin every two months beginning at 4-6 weeks of age. After 6-month treatment with E2, one group of mice was sacrificed immediately to evaluate cancer phenotypes (6M E2 group), another group was maintained for another month without further treatment (6M E2+1M without fulvestrant group), and the third group was treated with fulvestrant for a month (6M E2+1M with fulvestrant group).
Faslodex (50 mg/ml, human formulation of intramuscular injection of fulvestrant) was purchased from Astra Zeneca. Mice were subcutaneously injected with 0.15 ml (equivalent to 7.5 mg of fulvestrant) of Faslodex twice a week for a month (total of 9 injections).
Mice were subsequently injected with fulvestrant as described in Materials and Methods. Reproductive tracts were harvested, fixed in para-formaldehyde (PFA), and embedded in paraffin. Every tenth 5 μM section was stained with H&E and histopathologically scored to identify the worst grade of cervical/vaginal disease present in each animal. […] EVISTA® tablets were purchased from Eli Lilly and Company, which are human formulation of raloxifene (60 mg/tablet). Tablets were resuspended in phosphate buffered saline at a final concentration of 10 mg/ml. K14E6/K14E7 double transgenic mice were treated with E2 for 6 months and subsequently with raloxifene for a month by intraperitoneally injecting them with 0.15 ml of raloxifene suspension (equivalent to 1.5 mg) 5 days a week.
The test system is the same in assay [2]. The experiment in a line: Prevention of cervical/vaginal cancer in E2-treated K14E6/K14E7 mice (preventive fulvestrant).
Protocol: Mice. […] Experimental mice were generated by crossing K14E7 hemizygote and K14E6 homozygote mice. Female progenies were genotyped by PCR and a slow-releasing 17β-estradiol (E2) tablet (0.05 mg/60 days) (Innovative Research of America) was inserted subcutaneously under the dorsal skin every two months beginning at 4-6 weeks of age. After 6-month treatment with E2, one group of mice was sacrificed immediately to evaluate cancer phenotypes (6M E2 group), another group was maintained for another month without further treatment (6M E2+1M without fulvestrant group), and the third group was treated with fulvestrant for a month (6M E2+1M with fulvestrant group).
Fulvestrant treatment. Faslodex (50 mg/ml, human formulation of intramuscular injection of fulvestrant) was purchased from Astra Zeneca. Mice were subcutaneously injected with 0.15 ml (equivalent to 7.5 mg of fulvestrant) of Faslodex twice a week for a month (total of 9 injections).
Assay [3] relates to CVX1 human cervical cancer cells (ERα-positive). The assay is described as follows: Subcutaneous CVX1 tumors in nude mice. Format: in vivo. The conditions noted are these: estrogen-treated nude mice, fulvestrant 7.5 mg s.c. twice a week, two-week treatment period.
For assay [4], the system named is nontransgenic female mice. The experiment in a line: Uterine wet weight after one week of fulvestrant (dose finding). The conditions noted are these: two injections day 0 and day 3, uteri weighed day 7, normalized to body weight.
Description: The indicated dose was given to nontransgenic female mice by two injections at day 0 and day 3, and uteri were harvested and weighed at day 7. Uterine wet weight was normalized to body weight.
The subject of assay [5] is CaSki cervical cancer cell line (ERα-negative). The assay is described as follows: Subcutaneous CaSki tumors in nude mice. The conditions noted are these: estrogen-treated nude mice, with fulvestrant 7.5 mg s.c. twice a week. Format: in vivo, human.
The mark [6] stands for this setting: 6M E2 + 1M raloxifene 1.5 mg i.p. 5 days a week.
The mark [7] stands for this setting: 6M E2 + preventive fulvestrant (one month at the three-month time point), six-month endpoint.
Setting [8] is: 6M E2 + preventive fulvestrant, six-month endpoint.
[9] abbreviates: 6M E2 + 1M fulvestrant 7.5 mg s.c. twice a week, 13 mice.
The mark [10] stands for this setting: 6M estrogen then fulvestrant for two weeks.

In the case of `COc1ccc2c(c1)OC(C)(C)C(c1ccccc1)C2c1ccc(OCCN2CCCC2)cc1` (centres unmarked) [Ormeloxifene], in the assay on ER, the “Effect in cervix, vagina and endometrium” value was “antagonist in endometrium”.

For the compound `CN(C)CCOc1ccc(/C(=C(/CCCl)c2ccccc2)c2ccccc2)cc1` [Toremifene], the “Effect in cervix, vagina and endometrium” value in the assay on ER is listed as “agonist in endometrium”.

With `CC/C(=C(/c1ccc(OCCN(C)C)cc1)c1cccc(O)c1)c1ccccc1` [Droloxifene], the “Effect in cervix, vagina and endometrium” value in the assay with ER was “agonist in endometrium”.

On to `O=C(c1ccc(OCCN2CCCCC2)cc1)c1c(-c2ccc(O)cc2)sc2cc(O)ccc12` [raloxifene], for which, in assay [1] (setting [6]), the “# mice w/ dysplasia only, CIN1” value is listed as 0 (0); the “# mice w/ dysplasia only, CIN2” value is given as 0 (0); the “# mice w/ dysplasia only, CIN3” value is recorded as 0; the “# mice w/ dysplasia only, VIN1” value is given as 0 (0). For the same compound, in assay [1] (setting [6]), the “# mice w/ dysplasia only, VIN2” value is recorded as 0 (0); the “# mice w/ dysplasia only, VIN3” value is 1; the “# mice w/cancer and dysplasia, Cervix” value is given as 0 (0); the “# mice w/cancer and dysplasia, Vagina” value is 0 (0). Besides, in assay [1] (setting [6]), the “# mice with no dysplasia or cancer, Cervix” value was found to be 7; the “# mice with no dysplasia or cancer, Vagina” value came to 6; the “mice w/cancer and dysplasia (%), Cervix” value is reported as 0 (0) %; the “mice w/cancer and dysplasia (%), Vagina” value is given as 0 (0) %. Besides, the “regression of cervical and vaginal disease including cancers” value in assay [1] (6M E2 then raloxifene 1.5 mg i.p. 5 days a week for a month) is listed as “complete regression”. Besides, the “Effect in cervix, vagina and endometrium” value with ER is “neutral in endometrium”.

`C[C@]12CC[C@@H]3c4ccc(O)cc4C[C@@H](CCCCCCCCC[S+]([O-])CCCC(F)(F)C(F)(F)F)[C@H]3[C@@H]1CC[C@@H]2O` (some centres unmarked) [fulvestrant]: in assay [2] (setting [7]), the “# mice with no dysplasia or cancer, Cervix” value is reported as 6 and the “# mice with no dysplasia or cancer, Vagina” value amounted to 6. In assay [2] (setting [8]), the “# mice w/ dysplasia only, CIN1” value is on record as 0 (0); the “# mice w/ dysplasia only, CIN2” value is 0 (0); the “# mice w/ dysplasia only, CIN3” value is on record as 0 (0); the “# mice w/ dysplasia only, VIN1” value is recorded as 0 (0). Besides, in assay [2] (setting [8]), the “# mice w/ dysplasia only, VIN2” value was 0 (0); the “# mice w/ dysplasia only, VIN3” value is given as 0 (0); the “# mice w/cancer and dysplasia, Cervix” value is reported as 0 (0); the “# mice w/cancer and dysplasia, Vagina” value is 0 (0). In addition, in assay [2] (setting [8]), the “mice w/cancer and dysplasia (%), Cervix” value is on record as 0 (0) %; the “mice w/cancer and dysplasia (%), Vagina” value is given as 0 (0) %. In addition, the “cervical disease at the six-month endpoint” value in assay [2] (fulvestrant for one month at the three-month time point of E2 treatment) was “neither CIN nor cervical cancer”. Also, the CVX1 tumor growth result in assay [3] was “did not grow at all”. In assay [4] (fulvestrant 10 mg/week), the “decrease in uterine wet weight” value came to 50%. Moreover, in assay [4] (fulvestrant 15 mg/week), the “reduction in uterine wet weight” value is on record as 70%. Moreover, in assay [5], the CaSki tumor growth is recorded as 4.7 fold. Also, in assay [1] (setting [9]), the “number of mice with CIN1 as worst state (cervix)” value was 0 (0), the “number of mice with CIN2 as worst state (cervix)” value is 0 (0), the “number of mice with CIN3 as worst state (cervix)” value was 0 (0) and the “number of mice with VIN1 as worst state (vagina)” value was 0 (0). Further, in assay [1] (setting [9]), the “number of mice with VIN2 as worst state (vagina)” value was 0 (0), the “number of mice with VIN3 as worst state (vagina)” value was 0 (0), the “number of mice with cervical cancer” value is given as 1 (1) and the “number of mice with no dysplasia (worst state of disease)” value turned out to be 11. The “number of mice with vaginal cancer” value in assay [1] (setting [9]) is given as 1 (1). In addition, in assay [1] (6M E2 + 1M with fulvestrant), the “Average size of the largest tumor” value is 0.02 ± 0.05^ mm^2; the “Tumor multiplicity, Cervix” value was determined as 0.2 ± 0.5; the “Tumor multiplicity, Vagina” value worked out at 0.1 ± 0.3. Moreover, the “dysplastic lesions (CIN and VIN) in lower reproductive tract” value in assay [1] (6M estrogen then fulvestrant for 1 month) was “absence of any grade of dysplastic lesions”. In assay [1] (setting [10]), the “cancers in the lower reproductive tracts” value is given as “still had cancers” and the “dysplastic lesions in lower reproductive tract” value is given as “absent”. In assay [1] (fulvestrant-treated mice), the “thickness of lower reproductive tract epithelia” value is given as 2-3 layers of cells. Moreover, in assay [1] (of 13 mice, one cervical, one vaginal cancer), the “mice in which cancers persisted after one-month fulvestrant” value was 2. Also, the “Effect in cervix, vagina and endometrium” value in the assay with ER is recorded as “antagonist in cervix, vagina,”.

Consider `COc1ccc2c(c1)OC(C)(C)[C@@H](c1ccccc1)[C@@H]2c1ccc(OCCN2CCCC2)cc1` [Levormeloxifene], for which, in the assay with ER, the “Effect in cervix, vagina and endometrium” value is “agonist in endometrium”.

As for `CC1=C(c2ccc(OC(=O)C(C)(C)C)cc2)[C@H](c2ccc(OCCN3CCCCC3)cc2)Oc2cc(OC(=O)C(C)(C)C)ccc21` [EM-800], in the assay on ER, the “Effect in cervix, vagina and endometrium” value was “antagonist in endometrium”.

For `CC/C(=C(\c1ccccc1)c1ccc(OCCN(C)C)cc1)c1ccccc1` [Tamoxifen], the “Effect in cervix, vagina and endometrium” value in the assay on ER was “agonist in cervix, vagina,”.

Turning to `COc1ccc(-c2sc3cc(O)ccc3c2Oc2ccc(OCCN3CCCCC3)cc2)cc1` [Arzoxifene], the “Effect in cervix, vagina and endometrium” value in the assay with ER is reported as “antagonist in endometrium”.

Take `Cc1c(-c2ccc(O)cc2)n(Cc2ccc(OCCN3CCCCC3)cc2)c2ccc(O)cc12` [Pipendoxifene]: in the assay with ER, the “Effect in cervix, vagina and endometrium” value was “antagonist in endometrium”.

With `CC/C(=C(\c1ccc(I)cc1)c1ccc(OCCN2CCCC2)cc1)c1ccccc1` [Idoxifene], the “Effect in cervix, vagina and endometrium” value in the assay with ER is “agonist in endometrium”.

Take `Oc1ccc2c(c1)CC[C@H](c1ccccc1)[C@@H]2c1ccc(OCCN2CCCC2)cc1` [Lasofoxifene]: the “Effect in cervix, vagina and endometrium” value in the assay with ER is on record as “neutral in endometrium”.
